Experimental findings from patent publication US20100120763A1, “IMIDAZO[5,1-C][1,2,4]BENZOTRIAZINE DERIVATIVES AS INHIBITORS OF PHOSPHODIESTERASES” (priority 2008, published 2010) are described below.

pIC50: −log10 of the molar value. Bounds are passed on as bounds.

Data set [1] addresses T1, PDE10A (Homo sapiens, UniProt Q9Y233).
T1 construct: made in house; host or cells: SF21 insect cells (baculovirus)
The data set can be described thus: Inhibition of recombinant PDE10A (baculovirus/SF21 system), [3H]-cAMP SPA. The format is biochemical. The settings on record: recombinant PDE10A1, cytosolic; 0.1 μM [3H]-cAMP, 37° C., 30 minutes; read-out: PDE10A IC50.

Data set [2] addresses T2, PDE2A (Homo sapiens, UniProt O00408).
T2 construct: made in house; host or cells: SF21 insect cells (baculovirus)
The data set can be described thus: Inhibition of recombinant PDE2A (expressed in baculovirus/SF21-cells), [3H]-cAMP SPA. Format: biochemical. In a few lines:
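Membrane fraction of baculovirus/SF21-expressed PDE2A was incubated 30 min at 37° C in Tris-HCl/MgCl2 pH 7.4 with 0.5 μM [3H]-cAMP and 1000 nM cGMP as activator. Product was detected by SPA scintillation. IC50 used a Hill-plot 2-parameter model.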

T1 sequence (Q9Y233 1-779 isoform Q9Y233-1): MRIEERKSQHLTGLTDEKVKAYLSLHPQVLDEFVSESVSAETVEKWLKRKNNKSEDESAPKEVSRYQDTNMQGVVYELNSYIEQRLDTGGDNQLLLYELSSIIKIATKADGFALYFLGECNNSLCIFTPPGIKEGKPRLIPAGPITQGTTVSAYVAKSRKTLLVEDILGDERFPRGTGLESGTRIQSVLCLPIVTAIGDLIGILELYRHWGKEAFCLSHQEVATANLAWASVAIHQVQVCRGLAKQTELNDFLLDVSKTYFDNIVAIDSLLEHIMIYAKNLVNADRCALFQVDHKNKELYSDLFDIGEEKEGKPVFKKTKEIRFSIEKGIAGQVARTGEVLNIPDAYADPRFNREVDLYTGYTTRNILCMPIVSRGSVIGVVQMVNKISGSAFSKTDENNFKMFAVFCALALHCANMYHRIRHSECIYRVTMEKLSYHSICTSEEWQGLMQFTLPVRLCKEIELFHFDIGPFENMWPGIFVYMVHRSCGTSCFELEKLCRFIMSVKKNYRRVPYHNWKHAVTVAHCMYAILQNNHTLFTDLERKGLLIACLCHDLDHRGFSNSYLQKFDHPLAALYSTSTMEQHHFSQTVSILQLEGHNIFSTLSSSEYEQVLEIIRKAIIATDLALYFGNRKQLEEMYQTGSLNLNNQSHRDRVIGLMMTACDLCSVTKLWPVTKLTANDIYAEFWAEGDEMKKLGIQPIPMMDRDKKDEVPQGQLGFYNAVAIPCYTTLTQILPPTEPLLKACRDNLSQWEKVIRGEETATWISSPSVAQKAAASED
T2 sequence (O00408 whole entry): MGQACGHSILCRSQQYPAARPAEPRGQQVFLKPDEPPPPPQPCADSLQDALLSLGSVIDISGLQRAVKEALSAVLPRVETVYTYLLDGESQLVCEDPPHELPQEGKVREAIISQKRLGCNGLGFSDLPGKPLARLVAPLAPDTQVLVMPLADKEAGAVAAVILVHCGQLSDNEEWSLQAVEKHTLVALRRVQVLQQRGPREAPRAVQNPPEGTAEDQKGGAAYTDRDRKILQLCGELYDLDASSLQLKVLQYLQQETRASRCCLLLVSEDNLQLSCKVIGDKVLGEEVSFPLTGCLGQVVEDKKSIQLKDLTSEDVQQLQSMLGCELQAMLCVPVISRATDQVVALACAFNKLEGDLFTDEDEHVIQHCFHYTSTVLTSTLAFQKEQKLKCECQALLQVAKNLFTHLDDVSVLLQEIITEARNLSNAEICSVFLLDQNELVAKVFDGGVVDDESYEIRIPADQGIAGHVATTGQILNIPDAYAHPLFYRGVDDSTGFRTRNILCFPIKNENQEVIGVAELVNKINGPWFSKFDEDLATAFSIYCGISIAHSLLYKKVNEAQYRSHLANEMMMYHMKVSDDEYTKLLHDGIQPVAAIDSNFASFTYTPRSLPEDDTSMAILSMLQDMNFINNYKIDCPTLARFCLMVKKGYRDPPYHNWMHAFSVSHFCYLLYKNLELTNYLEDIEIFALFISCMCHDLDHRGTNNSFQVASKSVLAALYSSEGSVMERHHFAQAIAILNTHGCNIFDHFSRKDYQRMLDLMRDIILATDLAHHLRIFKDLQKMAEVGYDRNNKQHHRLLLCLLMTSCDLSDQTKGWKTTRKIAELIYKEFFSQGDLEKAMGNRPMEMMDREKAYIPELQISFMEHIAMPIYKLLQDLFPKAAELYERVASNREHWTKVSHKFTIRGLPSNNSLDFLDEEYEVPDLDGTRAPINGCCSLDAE

For the molecule `Cc1nc(-c2cc(Cl)ccc2Cl)n2c1nnc1ccc(-c3cc(Cl)ccc3Cl)cc12`, the melting point was 190 to 193 °C.
As to `Cc1nc(-c2cc(OC(C)C)ccc2F)n2c1nnc1ccc(-c3cc(OC(C)C)ccc3F)cc12`, the melting point lay in the range of 160.5 to 162 °C.
In turn, `CCOc1ccc(F)c(-c2ccc3nnc4c(C)nc(-c5cc(OCC)ccc5F)n4c3c2)c1` gave a melting point of 152 to 155 °C.
The same measure, in the same setting: in the case of `CCCCOc1ccc(F)c(-c2nc(C)c3nnc4cc(F)ccc4n23)c1` it was 91 to 94 °C; in that of `CCCOc1ccc(F)c(-c2nc(C)c3nnc4cc(F)ccc4n23)c1`, 119 to 122 °C.
Regarding `CCCc1nc(C)c2nnc3ccc(F)cc3n12` [Example 1, 8-fluoro-3-methyl-1-propyl-imidazo[5,1-c][1,2,4]benzotriazine], the melting point fell in the range of 124.5 to 126.5 °C. The pIC50 in data set [1] is 6.20. Also, the pIC50 in data set [2] is 6.15.
On the same counts, the results for `CCCc1nc(C)c2nnc3cc(OC)ccc3n12` [Example 2, 7-methoxy-3-methyl-1-propyl-imidazo[5,1-c][1,2,4]benzotriazine] are 159 to 162 °C, 6.40 and 6.26.
Molecule `CCc1nc(C)c2nnc3ccc(F)cc3n12` [Example 3, 1-ethyl-8-fluoro-3-methyl-imidazo[5,1-c][1,2,4]benzotriazine] gave a melting point of 187 to 190 °C. Moreover, the pIC50 in data set [1] is 5.41. For the same molecule, in data set [2], the pIC50 is 5.42.
On the same counts, the results for `Cc1nc(C2CCCCC2)n2c1nnc1ccc(F)cc12` [Example 4, 1-cyclohexyl-8-fluoro-3-methyl-imidazo[5,1-c][1,2,4]benzotriazine] are 246 to 250 °C (dec.), 6.64 and 6.27.
`COc1ccc2nnc3c(C)nc(-c4cc(Cl)ccc4Cl)n3c2c1` [Example 5, 1-(2,5-dichlorophenyl)-8-methoxy-3-methyl-imidazo[5,1-c][1,2,4]benzotriazine]: the melting point lay in the range of 165 to 168 °C. The pIC50 in data set [1] is 7.63. The pIC50 in data set [2] is 8.48.
On the same counts, the results for `Cc1nc(-c2cc(Cl)ccc2Cl)n2c1nnc1cc(F)ccc12` [Example 6, 1-(2,5-dichlorophenyl)-7-fluoro-3-methyl-imidazo[5,1-c][1,2,4]benzotriazine] are 186 to 190 °C, 6.12 and 7.53.
On the same counts, the results for `COc1ccc2c(c1)nnc1c(C)nc(-c3cc(Cl)ccc3Cl)n12` [Example 7, 1-(2,5-dichlorophenyl)-7-methoxy-3-methyl-imidazo[5,1-c][1,2,4]benzotriazine] are 144 to 147 °C, 6.59 and 7.75.
The molecule `COc1ccccc1-c1nc(C)c2nnc3ccc(Cl)cc3n12` [Example 39, 8-chloro-1-(2-methoxyphenyl)-3-methylbenzo[e]imidazo[5,1-c][1,2,4]triazine] returned a melting point of 179 to 182 °C. Moreover, in data set [1], the pIC50 was 6.94.
Consider `COc1cc2nnc3c(C)nc(-c4ccccc4Cl)n3c2cc1OC` [Example 46, 1-(2-chlorophenyl)-7,8-dimethoxy-3-methylbenzo[e]imidazo[5,1-c][1,2,4]triazine], for which the melting point lay within 269 to 272 °C.
For the molecule `COc1cc2nnc3c(C)nc(-c4ccccc4C)n3c2cc1OC` [Example 49, 7,8-dimethoxy-3-methyl-1-o-tolylbenzo[e]imidazo[5,1-c][1,2,4]triazine], the melting point fell in the range of 219 to 221 °C.
Still for that read-out and setting: to `COc1cc2nnc3c(C)nc(CC(C)C)n3c2cc1OC` [Example 53, 1-isobutyl-7,8-dimethoxy-3-methylbenzo[e]imidazo[5,1-c][1,2,4]triazine] belongs 196 to 199 °C.
`COc1cc2nnc3c(C)nc(Br)n3c2cc1OC` [Example 54, 1-bromo-7,8-dimethoxy-3-methylbenzo[e]imidazo[5,1-c][1,2,4]triazine] displayed a melting point of 200 °C.
The same measure, in the same setting: in the case of `COc1cc2nnc3c(C)nc(-c4cc(Cl)ccc4Cl)n3c2cc1OC` [Example 55, 1-(2,5-dichlorophenyl)-7,8-dimethoxy-3-methylbenzo[e]imidazo[5,1-c][1,2,4]triazine] it was 175 °C; in that of `COc1cc2nnc3c(C)nc(-c4cc(C)ccc4Cl)n3c2cc1OC` [Example 56, 1-(2-chloro-5-methylphenyl)-7,8-dimethoxy-3-methylbenzo[e]imidazo[5,1-c][1,2,4]triazine], 247 to 249 °C.
On to `COc1cc2nnc3c(C)nc(-c4ccccc4C(F)(F)F)n3c2cc1OC` [Example 57, 7,8-dimethoxy-3-methyl-1-(2-(trifluoromethyl)phenyl)benzo[e]imidazo[5,1-c][1,2,4]triazine], for which the melting point fell in the range of 147 to 150 °C.
On to `Cc1nc(-c2ccccc2Cl)n2c1nnc1cc(F)c(F)cc12` [Example 58, 1-(2-chlorophenyl)-7,8-difluoro-3-methylbenzo[e]imidazo[5,1-c][1,2,4]triazine], for which the melting point is 157 to 159 °C.
On the same count and under the same terms, to `Cc1nc(CC(C)C)n2c1nnc1cc(F)c(F)cc12` [Example 59, 7,8-difluoro-1-isobutyl-3-methylbenzo[e]imidazo[5,1-c][1,2,4]triazine] belongs 123 to 125.5 °C.
For the molecule `COc1cc(F)cc2c1nnc1c(C)nc(-c3ccncc3)n12` [Example 129, 8-fluoro-6-methoxy-3-methyl-1-pyridin-4-ylimidazo[5,1-c][1,2,4]benzotriazine], the values for the pIC50 in data set [1] and in data set [2] were 7.21 and 5.31, respectively.
As for `Cc1nc(-c2cc(Cl)ccc2Cl)n2c1nnc1c(Cl)cc(C(F)(F)F)cc12` [Example 133, 6-chloro-1-(2,5-dichlorophenyl)-3-methyl-8-(trifluoromethyl)imidazo[5,1-c][1,2,4]benzotriazine], the pIC50 in data set [1] is 8.01; in data set [2] it was 6.39.
On the same counts, the results for `COc1cc(C(F)(F)F)cc2c1nnc1c(C)nc(-c3ccncc3C)n12` [Example 134, 6-methoxy-3-methyl-1-(3-methylpyridin-4-yl)-8-(trifluoromethyl)benzo[e]imidazo[5,1-c][1,2,4]triazine] are 8.83 and 6.46.
`COc1cc(C(F)(F)F)cc2c1nnc1c(C)nc(-c3ccoc3)n12` [Example 143, 1-(Furan-3-yl)-6-methoxy-3-methyl-8-(trifluoromethyl)benzo[e]imidazo[5,1-c][1,2,4]triazine]: the pIC50 was 7.24 in data set [1] and less than 6.00 in data set [2].
Turning to `COc1cc(O)cc2c1nnc1c(C)nc(-c3cnccc3C)n12` [Example 149, 6-methoxy-3-methyl-1-(4-methylpyridin-3-yl)benzo[e]imidazo[5,1-c][1,2,4]triazin-8-ol], the pIC50 in data set [1] is 7.66; in data set [2], 6.35.
With `COc1cc(OC(F)F)cc2c1nnc1c(C)nc(-c3cnccc3C)n12` [Example 150, 8-(difluoromethoxy)-6-methoxy-3-methyl-1-(4-methylpyridin-3-yl)benzo[e]imidazo[5,1-c][1,2,4]triazine], the pIC50 is 8.15 in data set [1] and 6.03 in data set [2].
For `COc1cc(OCc2ccccc2)cc2c1nnc1c(C)nc(-c3ccncc3C)n12` [Example 151, 8-(benzyloxy)-6-methoxy-3-methyl-1-(3-methylpyridin-4-yl)imidazo[5,1-c][1,2,4]benzotriazine], the pIC50 in data set [1] was 9.15; in data set [2] it was 7.09.
Regarding `COc1cc(O)cc2c1nnc1c(C)nc(-c3ccncc3C)n12` [Example 152, 6-methoxy-3-methyl-1-(3-methylpyridin-4-yl)benzo[e]imidazo[5,1-c][1,2,4]triazin-8-ol], the pIC50 in data set [1] is 8.52; in data set [2] it was 6.98.
On the same counts, the results for `COc1cc(OCc2ccccc2)cc2c1nnc1c(C)nc(-c3cccnc3C)n12` [Example 154, 8-(benzyloxy)-6-methoxy-3-methyl-1-(2-methylpyridin-3-yl)imidazo[5,1-c][1,2,4]benzotriazine] are 9.17 and 7.13.
For the molecule `COc1cc(OCc2ccccc2)cc2c1nnc1c(C)nc(-c3cnccc3C)n12` [Example 157, 8-(benzyloxy)-6-methoxy-3-methyl-1-(4-methylpyridin-3-yl)imidazo[5,1-c][1,2,4]benzotriazine], the pIC50 in data set [1] was 8.27; in data set [2], 6.56.
As to `Cc1cn(-c2ccc3nnc4c(C)nc(C5CCCCC5)n4c3c2)c(C2CCCCC2)n1` [Example 179, 1-Cyclohexyl-8-(2-cyclohexyl-4-methyl-imidazol-1-yl)-3-methyl-imidazo[5,1-c][1,2,4]benzotriazine], the pIC50 in data set [1] is 6.49; in data set [2] it was 6.62.
On the same counts, the results for `Cc1nc(-c2cc(Cl)ccc2Cl)n2c1nnc1ccc(N3CCCCC3)cc12` [Example 180, 1-(2,5-Dichloro-phenyl)-3-methyl-8-piperidin-1-yl-imidazo[5,1-c][1,2,4]benzotriazine] are 7.30 and 8.16.
`Cc1nc(-c2cc(Cl)ccc2Cl)n2c1nnc1ccc(N3CCOCC3)cc12` [Example 181, 1-(2,5-Dichloro-phenyl)-3-methyl-8-morpholin-4-yl-imidazo[5,1-c][1,2,4]benzotriazine]: the pIC50 in data set [1] was 7.61; in data set [2], 8.64.
As for `Cc1cn(-c2ccc3nnc4c(C)nc(CC(C)C)n4c3c2)c(CC(C)C)n1` [Example 182, 1-Isobutyl-8-(2-isobutyl-4-methyl-imidazol-1-yl)-3-methyl-imidazo[5,1-c][1,2,4]benzotriazine], the pIC50 is 7.48 in data set [1] and 6.87 in data set [2].
Consider `Cc1nc(-c2ccccc2Cl)n2c1nnc1ccc(N3CCCCC3)cc12` [Example 183, 1-(2-Chloro-phenyl)-3-methyl-8-piperidin-1-yl-imidazo[5,1-c][1,2,4]benzotriazine], for which the pIC50 in data set [1] was 7.92; in data set [2], 8.11.
